The source of these data is patent publication US8445510B2, “Fused bicyclic kinase inhibitors” (OSI Pharmaceuticals, LLC, priority 2011, dated 2013).

Format in all cases: cell-based
One test concerns Karpas-299 cells. The test is described as follows: Karpas-299 cell proliferation assay (CellTiter-Glo). The note with it: Homo sapiens, 72 h; Karpas-299 cell line (NPM-ALK); 3 days incubation; at least duplicate experiments; read-out: Prolif. IC50. As for the experimental part: The effect of inhibitors on the proliferation of Karpas-299 cells (DSMZ no. ACC 31) was determined using the following protocol. Karpas-299 cells were plated in 96-well white tissue culture treated plates (Corning 3917) in growth medium (RPMI, 10% FCS) at a density of 5000 cells/well in a total volume of 135 μL and incubated at 37° C., 5% CO2, 95% humidity overnight. The following day, one-tenth volume of a 10× concentration of compounds was added to the wells in an 8-point dilution series. Compounds were serially diluted (1:4) in DMSO from a 10 mM stock solution prior to dilution in growth media to the 10× working concentrations (5% DMSO). Final concentration of DMSO in compound-treated wells was 0.5%. Control wells containing growth media or growth media/0.5% DMSO were included in all test plates. […] Once the compounds were added to the cells, plates were incubated for 3 days at 37° C., 5% CO2 at 95% humidity. After 72 hours, all cells and reagents were equilibrated to room temperature and 15 μL of CellTiter-Glo reagent (Promega # G7573) was added to each well. Plates were shaken on a platform for 10 minutes at room temperature prior to reading luminescence. The value of the signal of the control wells was set as 100% growth and growth inhibition was expressed as percent of control. IC50 values were determined from the percent of control data using a standard four-parameter curve fit equation.
The IC50 values of exemplary compounds of the present invention determined in a cell proliferation assay using the Karpas-299 cell line according to the procedures described herein in at least duplicate experiments are abbreviated as follows and are shown in Table 5: A, IC50≦0.05 μM; B, 0.05 μM<IC50≦0.2 μM; C, 0.2 μM<IC50≦1 μM; D, IC50>1 μM; ND, not determined. The Example # of Table 5 corresponds to the compound example number as illustrated in the Examples section.
The Karpas-299 cell line has a t(2; 5) chromosomal translocation and expresses the NPM-ALK fusion protein, resulting in constitutively active ALK. […] Ther. 6(12):3314-22 (2007)]. With this “ALK-driven” cell line, the cell proliferation IC50 values can thus be used as surrogate for the p-ALK cell mechanistic IC50 values.
A general note: Cellular ATP, detected with luciferase, serves as a proxy for viable cell number.

The test system of the next test is MKN45 cells. The test is described as follows: MKN45 cell proliferation assay (CellTiter-Glo). The settings on record: Homo sapiens, MKN-45, 72 h; MKN45 cell line; 3 days incubation; at least duplicate experiments; read-out: Prolif. IC50. As for the experimental part: The effect of inhibitors on the proliferation of MKN45 cells was determined using the following protocol. MKN45 cells were plated in Corning 3917 96-well white tissue culture treated plates in growth medium (RPMI, 10% FCS) at a density of 5000 cells/well in a total volume of 135 μL and incubated at 37° C., 5% CO2, 95% humidity overnight. The following day, one-tenth volume of a 10× concentration of compounds was added to the wells in an 8-point dilution series. The dilution series was composed of an initial 1:5 dilution of a 10 mM stock of compound in DMSO, followed by serial 1:4 dilutions in DMSO, then a 1:20 dilution in growth medium prior to the 1:10 dilution into the cell plate. […] The typical dilution range is 10 μM to 0.6 nM. Once the compound was added to the cells, plates were incubated for 3 days at 37° C., 5% CO2 at 95% humidity. On the third day, after allowing all cells and reagents to come to room temperature, 25 μL of CellTiter-Glo reagent (Promega #G7573) was added to the wells. Plates were shaken on a platform for 10 minutes prior to reading luminescence for 0.1 seconds. The signal of the control wells was taken as 100% growth and growth inhibition was expressed as percent of control. IC50 values were determined from the percent of control data using a standard four-parameter model.
The IC50 values of exemplary compounds of the present invention determined in a cell proliferation assay using the MKN45 cell line according to the procedures described herein in at least duplicate experiments are abbreviated as follows and are shown in Table 2: A, IC50≦0.05 μM; B, 0.05 μM<IC50≦0.2 μM; C, 0.2 μM<IC50≦1 μM; D, IC50>1 μM; ND, not determined. The Example # of Table 2 corresponds to the compound example number as illustrated in the Examples section.
Treatment of this cell line with a selective c-MET inhibitor led to induction of apoptosis and inhibition of proliferation, whereas non-MET-amplified cell lines were not affected [Smolen et al., Proc. Natl. Acad. Sci. USA, 103(7):2316-2321 (2006)]. This cell line is thus “driven” by c-MET, and antiproliferative effects correlate very well with the inhibition of c-MET phosphorylation so that the cell proliferation IC50, values can be used as surrogate for the c-MET cell mechanistic IC50, values. Under the assay conditions described herein, the IC50 values correlate nearly 1:1.

For a further test, the target named is T1, RON (Homo sapiens, UniProt Q04912).
T1 sequence (Q04912 913-1400): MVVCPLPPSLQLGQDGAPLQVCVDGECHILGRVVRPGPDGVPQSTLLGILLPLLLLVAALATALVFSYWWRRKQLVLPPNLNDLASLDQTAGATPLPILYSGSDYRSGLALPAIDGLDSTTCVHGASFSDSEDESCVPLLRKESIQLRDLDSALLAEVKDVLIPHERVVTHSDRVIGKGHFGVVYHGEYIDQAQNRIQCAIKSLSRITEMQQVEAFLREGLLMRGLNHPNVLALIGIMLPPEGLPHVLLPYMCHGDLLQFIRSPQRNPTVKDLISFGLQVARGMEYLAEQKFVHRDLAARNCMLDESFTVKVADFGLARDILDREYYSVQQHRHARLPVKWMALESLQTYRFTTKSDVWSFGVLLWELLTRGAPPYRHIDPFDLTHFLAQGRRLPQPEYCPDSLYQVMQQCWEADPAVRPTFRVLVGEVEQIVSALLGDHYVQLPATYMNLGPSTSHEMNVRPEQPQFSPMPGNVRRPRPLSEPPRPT
The test is described as follows: sfRON cell mechanistic assay (HeLa), phosphorylated RON ELISA. The settings on record: HeLa cells transfected with sfRON; inhibition of phosphorylated RON; four hours incubation; at least duplicate experiments; read-out: sfRON mech IC50. As for the experimental part: The cellular activity of the compounds of the present invention against RON may be determined by the following procedure. HeLa cells were plated in Falcon 3072 96-well plates in growth media (DMEM, 10% FBS, 1% L-glutamine) at a density of 10000 cells/well and incubated at 37° C., 5% CO2 overnight. The following day, cells were transfected with 0.2 μg sfRON-pcDNA plasmid DNA with 0.5 μL Lipofectamine-2000 per well in the presence of 50 μL OPTI-MEM, incubated at 37° C., 5% CO2 overnight. Costar 3915 96-well assay plates were coated with rabbit Anti-RON antibody at 2.0 μg/mL, sealed, and incubated overnight at 4° C. On the third day, coated plates were washed with PBS and blocked with 3% BSA. For the sfRON transfected cells, one-tenth volume of a 10× concentration of compounds was added to the wells in a 6-point dilution series. The dilution series was composed of an initial 1:5 dilution of a 10 mM DMSO stock solution of compound in DMSO, followed by a 1:10 dilution in growth media, for a final DMSO concentration on cells of 0.5%. Control wells were treated with 0.5% DMSO. The typical range of dilution was 10 μM to 3 nM. Once compound was added to the cells, plates were incubated for four hours at 37° C., 5% CO2. Plates were then washed in PBS, and lysed in triton-based lysis buffer. Lysates were transferred to the blocked capture plates. The phosphorylated RON levels were measured by incubating with a Goat polyclonal antibody against phosphorylated RON ([pYpY1238/1239]) followed by an anti-Goat antibody conjugated to HRP. Signal was measured on a Wallac Victor plate reader with luminance. The DMSO signal of the control wells was defined as 100% and the percent of inhibition of phosphorylated RON was expressed as percent of control. IC50 values were determined from the percent of control data using a standard four-parameter model.
The IC50 values of exemplary compounds of the present invention determined in a sfRON cell mechanistic assay using the HeLa cell line according to the procedures described herein in at least duplicate experiments are abbreviated as follows and are shown in Table 3: A, IC50≦0.2 μM; B, 0.2 μM<IC50≦1.0 μM; C, IC50>1 μM; ND, not determined. The Example # of Table 3 corresponds to the compound example number as illustrated in the Examples section.

Take `Cc1c(-c2cnc3[nH]cc([C@H](C)c4c(OC(F)F)ccc(F)c4Cl)c3c2)cnn1[C@H]1CC[C@H](N(C)CC(=O)O)CC1` [Example 89, N-{trans-4-[4-(3-{(1S)-1-[2-Chloro-6-(difluoromethoxy)-3-fluorophenyl]ethyl}-1H-pyrrolo[2,3-b]pyridin-5-yl)-5-methyl-1H-pyrazol-1-yl]cyclohexyl}-N-methylglycine]: the IC50 – broadly, the concentration needed to halve the response being measured – in the test on Karpas-299 cells is 50 to 200 nM; in the test on MKN45 cells it was at most 50 nM; on RON it was over 1000 nM.

With `COc1ccc(F)c(Cl)c1[C@@H](C)c1c[nH]c2ncc(-c3cnn([C@H]4CC[C@H](N)CC4)c3C)cc12` [Example 58, trans-4-(4-{3-[(1S)-1-(2-Chloro-3-fluoro-6-methoxyphenyl)ethyl]-1H-pyrrolo[2,3-b]pyridin-5-yl}-5-methyl-1H-pyrazol-1-yl)cyclohexanamine], the IC50 was at most 50 nM with Karpas-299 cells, at most 50 nM with MKN45 cells and 200 to 1000 nM at RON.

On to `[2H]C([2H])([2H])[C@H](c1c(OC(F)F)ccc(F)c1Cl)c1c[nH]c2ncc(-c3cnn([C@H]4CC[C@H](O)CC4)c3C)cc12` [Example 113, trans-4-(4-{3-[(1S)-1-[2-Chloro-6-(difluoromethoxy)-3-fluorophenyl](2,2,2-^2H3)ethyl]-1H-pyrrolo[2,3-b]pyridin-5-yl}-5-methyl-1H-pyrazol-1-yl)cyclohexanol], for which the IC50 was at most 50 nM with Karpas-299 cells, at most 50 nM in the test on MKN45 cells and at most 200 nM at RON.

In the case of `COc1ccc(F)c(Cl)c1[C@@H](C)c1c[nH]c2ncc(-c3cnn([C@H]4CC[C@@H](N5CCN(C(C)=O)CC5)CC4)c3C)cc12` [Example 57, 1-{4-[cis-4-(4-{3-[(1S)-1-(2-Chloro-3-fluoro-6-methoxyphenyl)ethyl]-1H-pyrrolo[2,3-b]pyridin-5-yl}-5-methyl-1H-pyrazol-1-yl)cyclohexyl]piperazin-1-yl}ethanone], the values for the concentration for half-maximal inhibition (IC50) in the test on Karpas-299 cells, with MKN45 cells and at RON were 50 to 200 nM, at most 50 nM and over 1000 nM, respectively.

On to `Cc1c(-c2cnc3[nH]cc([C@H](C)c4c(OC(F)F)ccc(F)c4Cl)c3c2)cnn1[C@H]1CC[C@H](N)CC1` [Example 93, trans-4-[4-(3-{(1S)-1-[2-Chloro-6-(difluoromethoxy)-3-fluorophenyl]ethyl}-1H-pyrrolo[2,3-b]pyridin-5-yl)-5-methyl-1H-pyrazol-1-yl]cyclohexanamine], for which the 50% inhibitory concentration (IC50) is at most 50 nM in the test on Karpas-299 cells, at most 50 nM with MKN45 cells and at most 200 nM at RON.

For `Cc1c(-c2cnc3[nH]cc([C@H](C)c4c(OC(F)F)ccc(F)c4Cl)c3c2)cnn1[C@H]1CC[C@@H](N2CCC[C@H]2C(=O)O)CC1` [Example 92, 1-{cis-4-[4-(3-{(1S)-1-[2-Chloro-6-(difluoromethoxy)-3-fluorophenyl]ethyl}-1H-pyrrolo[2,3-b]pyridin-5-yl)-5-methyl-1H-pyrazol-1-yl]cyclohexyl}-L-proline], the half-inhibitory concentration (IC50) in the test with Karpas-299 cells was 200 to 1000 nM; with MKN45 cells, 200 to 1000 nM; on RON, over 1000 nM.

As to `Cc1c(-c2cnc3[nH]cc([C@H](C)c4c(OC(F)F)ccc(F)c4Cl)c3c2)cnn1[C@H]1CC[C@@H](O)CC1` [Example 86, cis-4-[4-(3-{(1S)-1-[2-Chloro-6-(difluoromethoxy)-3-fluorophenyl]ethyl}-1H-pyrrolo[2,3-b]pyridin-5-yl)-5-methyl-1H-pyrazol-1-yl]cyclohexanol], the concentration for half-maximal inhibition (IC50) was at most 50 nM with Karpas-299 cells, at most 50 nM with MKN45 cells and 200 to 1000 nM on RON.

In the case of `COc1c(F)ccc(Cl)c1C(C)c1c[nH]c2ncc(-c3cnn([C@H]4CC[C@H](O)CC4)c3C)cc12` (stereo partly drawn) [Example 112, trans-4-(4-{3-[1-(6-Chloro-3-fluoro-2-methoxyphenyl)ethyl]-1H-pyrrolo[2,3-b]pyridin-5-yl}-5-methyl-1H-pyrazol-1-yl)cyclohexanol], the figures for the IC50 in the test with Karpas-299 cells, with MKN45 cells and on RON were 200 to 1000 nM, over 1000 nM and over 1000 nM, respectively.

As to `Cc1c(-c2cnc3[nH]cc([C@H](C)c4c(OC(F)F)ccc(F)c4Cl)c3c2)cnn1[C@H]1CC[C@@H](N(C)CC(=O)O)CC1` [Example 90, N-{cis-4-[4-(3-{(1S)-1-[2-Chloro-6-(difluoromethoxy)-3-fluorophenyl]ethyl}-1H-pyrrolo[2,3-b]pyridin-5-yl)-5-methyl-1H-pyrazol-1-yl]cyclohexyl}-N-methylglycine], the IC50 was 50 to 200 nM with Karpas-299 cells, 50 to 200 nM with MKN45 cells and over 1000 nM at RON.
